According to PubChem BioAssay AID330 (DTP/NCI, 2004):
Several values for one entry are separate records, joined by “and”; a condition that tells them apart may be missing. Equal values may be shown once. Inconclusive results and toxic doses are left out.

System: P388 leukemia ip, CD2F1 mice, survival T/C
Assay: NCI In Vivo Anticancer Drug Screen. Data for tumor model P388 Leukemia (intraperitoneal) in CD2F1 (CDF1) mice
Details: endpoint: median survival time, higher = longer survival
Procedure, shortened: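 Mice carrying the transplanted tumor received test compound or vehicle. Survival was recorded in each group, and the value is the treated-group measurement divided by that of the vehicle-treated control group.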

[1] = dose: 50.0 mg/kg/injection, schedule: Q01DX005 (ip), vehicle: Klucel (hydroxypropylcellulose) (HPC)
[2] = dose: 100.0 mg/kg/injection, schedule: Q01DX005 (ip), vehicle: Klucel (hydroxypropylcellulose) (HPC)
[3] = dose: 200.0 mg/kg/injection, schedule: Q01DX005 (ip), vehicle: Klucel (hydroxypropylcellulose) (HPC)
[4] = dose: 30.0 mg/kg/injection, schedule: Q01DX005 (ip), vehicle: saline with Tween-80
[5] = dose: 60.0 mg/kg/injection, schedule: Q01DX005 (ip), vehicle: saline with Tween-80
[6] = dose: 120.0 mg/kg/injection, schedule: Q01DX005 (ip), vehicle: saline with Tween-80
[7] = dose: 240.0 mg/kg/injection, schedule: Q01DX005 (ip), vehicle: saline with Tween-80
[8] = dose: 50.0 mg/kg/injection, schedule: Q01DX009 (ip), vehicle: saline with Tween-80
[9] = dose: 100.0 mg/kg/injection, schedule: Q01DX009 (ip), vehicle: saline with Tween-80
[10] = dose: 50.0 mg/kg/injection, schedule: Q01DX005 (ip), vehicle: saline
[11] = dose: 100.0 mg/kg/injection, schedule: Q01DX005 (ip), vehicle: saline
[12] = dose: 200.0 mg/kg/injection, schedule: Q01DX005 (ip), vehicle: saline
[13] = dose: 25.0 mg/kg/injection, schedule: Q01DX005 (ip), vehicle: saline
[14] = dose: 100.0 mg/kg/injection, schedule: Q04DX003 (ip), vehicle: saline with Tween-80
[15] = dose: 200.0 mg/kg/injection, schedule: Q01DX009 (ip), vehicle: saline with Tween-80
[16] = dose: 200.0 mg/kg/injection, schedule: Q04DX003 (ip), vehicle: saline with Tween-80
[17] = dose: 400.0 mg/kg/injection, schedule: Q04DX003 (ip), vehicle: saline with Tween-80
[18] = dose: 50.0 mg/kg/injection, schedule: Q01DX005 (ip), vehicle: saline with Tween-80
[19] = dose: 100.0 mg/kg/injection, schedule: Q01DX005 (ip), vehicle: saline with Tween-80
[20] = dose: 200.0 mg/kg/injection, schedule: Q01DX005 (ip), vehicle: saline with Tween-80
[21] = dose: 100.0 mg/kg/injection, schedule: Q01DX001 (ip), vehicle: saline with Tween-80
[22] = dose: 200.0 mg/kg/injection, schedule: Q01DX001 (ip), vehicle: saline with Tween-80

`Nc1ncnc2c1ncn2CC(O)CCl` (centres undefined) was tested, and the T/C [1] was 100 % of control, the T/C [2] was 99 % of control and the T/C [3] was 100 % of control.
With `OC(c1ccc(F)cc1)(C1CC1)C1CC1` the T/C (dose: 100.0 mg/kg/injection, schedule: Q01DX001 (ip), vehicle: saline + alcohol) was 98 % of control, the T/C (dose: 200.0 mg/kg/injection, schedule: Q01DX001 (ip), vehicle: saline + alcohol) was 99 % of control and the T/C (dose: 400.0 mg/kg/injection, schedule: Q01DX001 (ip), vehicle: saline + alcohol) was 101 % of control.
`O=C(CCCl)Nc1cccc(CCC(=O)c2cccc(NC(=O)CCCl)c2)c1` was tested, and the T/C (dose: 15.0 mg/kg/injection, schedule: Q01DX005 (ip), vehicle: saline with Tween-80) was 103 % of control, the T/C [4] was 103 % of control and the T/C [5] was 102 % of control and 103 % of control. For the same compound, the T/C [6] was 103 % of control and the T/C [7] was 110 % of control.
For `CC[As](CCO)SC1CC(OC(=O)c2ccccc2)C(OC(=O)c2ccccc2)C(COC(=O)c2ccccc2)O1` (centres undefined), the T/C (dose: 25.0 mg/kg/injection, schedule: Q01DX009 (ip), vehicle: saline with Tween-80) was 110 % of control, the T/C (dose: 50.0 mg/kg/injection, schedule: Q01DX009 (ip), vehicle: saline + alcohol) was 124 % of control and the T/C [8] was 96 % of control. The T/C [9] was 110 % of control.
With `C=[CH][Sn]([CH]=C)([CH2]C)[CH2]C` the T/C [10] was 102 % of control, the T/C [11] was 104 % of control and the T/C [12] was 114 % of control.
With `O=C(CNN1C(=O)CSC1=Nc1cccc2ccccc12)c1cccc2c1Nc1ccccc1S2` the T/C (dose: 50.0 mg/kg/injection, schedule: Q01DX009 (ip), vehicle: Klucel (hydroxypropylcellulose) (HPC)) was 102 % of control, the T/C (dose: 100.0 mg/kg/injection, schedule: Q01DX009 (ip), vehicle: Klucel (hydroxypropylcellulose) (HPC)) was 102 % of control and the T/C (dose: 200.0 mg/kg/injection, schedule: Q01DX009 (ip), vehicle: Klucel (hydroxypropylcellulose) (HPC)) was 98 % of control.
In the case of `CCNC(=S)N/N=C\C=N/NC(=S)NCC`, the T/C (dose: 75.0 mg/kg/injection, schedule: Q01DX009 (ip), vehicle: saline with Tween-80) was 105 % of control, the T/C (dose: 150.0 mg/kg/injection, schedule: Q01DX009 (ip), vehicle: saline with Tween-80) was 92 % of control and the T/C (dose: 300.0 mg/kg/injection, schedule: Q01DX009 (ip), vehicle: saline with Tween-80) was 103 % of control.
In the case of `C=C[CH2][Sn]([CH2]C)([CH2]C)[CH2]C=C`, the T/C (dose: 12.5 mg/kg/injection, schedule: Q01DX005 (ip), vehicle: saline) was 107 % of control, the T/C [13] was 114 % of control and the T/C [11] was 154 % of control.
With `O=C(Nn1c(=S)[nH]c2ccccc2c1=O)c1ccc([N+](=O)[O-])cc1` the T/C (dose: 60.0 mg/kg/injection, schedule: Q01DX005 (ip), vehicle: Klucel + Tween-80) was 93 % of control and the T/C (dose: 120.0 mg/kg/injection, schedule: Q01DX005 (ip), vehicle: Klucel + Tween-80) was 87 % of control.
In the case of `CC1(C)N=C(Oc2cc(Cl)cc(Cl)c2)NC(=S)N1`, the T/C (dose: 60.0 mg/kg/injection, schedule: Q01DX005 (ip), vehicle: DMSO) was 109 % of control, the T/C (dose: 120.0 mg/kg/injection, schedule: Q01DX005 (ip), vehicle: DMSO) was 100 % of control and the T/C (dose: 240.0 mg/kg/injection, schedule: Q01DX005 (ip), vehicle: DMSO) was 97 % of control.
`CC(C)N=Cc1ccccc1O.CC(C)N=Cc1ccccc1O.[Cu]` was tested, and the T/C (dose: 25.0 mg/kg/injection, schedule: Q04DX003 (ip), vehicle: saline with Tween-80) was 100 % of control and the T/C (dose: 50.0 mg/kg/injection, schedule: Q04DX003 (ip), vehicle: saline with Tween-80) was 100 % of control.
In the case of `O=C(O)C(O)C(O)C(O)C(O)CO.[Mn]` (centres undefined), the T/C [8] was 113 % of control.
In the case of `Cc1nnc2c(c(=O)n(C)c(=O)n2C)[n+]1[O-]`, the T/C (dose: 12.5 mg/kg/injection, schedule: Q01DX001 (ip), vehicle: saline) was 105 % of control, the T/C (dose: 25.0 mg/kg/injection, schedule: Q01DX001 (ip), vehicle: saline) was 109 % of control and the T/C (dose: 50.0 mg/kg/injection, schedule: Q01DX001 (ip), vehicle: saline) was 106 % of control.
`Cc1cccc(-c2cc(Cl)c3cc(S(=O)(=O)F)ccc3n2)c1` was tested, and the T/C [9] was 100 % of control, the T/C [14] was 100 % of control and the T/C [15] was 108 % of control. The T/C [16] was 100 % of control, the T/C (dose: 400.0 mg/kg/injection, schedule: Q01DX009 (ip), vehicle: saline with Tween-80) was 100 % of control and the T/C [17] was 109 % of control.
For `CC(=O)OCCNc1n[nH]c(=O)c2ccncc12`, the T/C [4] was 95 % of control, the T/C [5] was 93 % of control and the T/C [6] was 101 % of control. The T/C [7] was 113 % of control.
`C=CC(=O)OCC(C)(C)C` was tested, and the T/C [10] was 99 % of control, the T/C [11] was 98 % of control and the T/C [12] was 116 % of control.
In the case of `Nc1nc(N)c(N=O)c(Nc2ccccc2)n1`, the T/C [8] was 97 % of control, the T/C [9] was 99 % of control and the T/C [15] was 96 % of control.
With `Oc1c2c(c3cccc4cccc1c43)=Nc1ccccc1S2` the T/C [18] was 95 % of control, the T/C [19] was 94 % of control and the T/C [20] was 90 % of control.
With `Oc1ccc(/C=C/c2cc(O)cc(O)c2)cc1` the T/C (dose: 18.5 mg/kg/injection, schedule: Q01DX009 (ip), vehicle: Klucel (hydroxypropylcellulose) (HPC)) was 101 % of control, the T/C (dose: 37.0 mg/kg/injection, schedule: Q01DX009 (ip), vehicle: Klucel (hydroxypropylcellulose) (HPC)) was 100 % of control and the T/C (dose: 74.0 mg/kg/injection, schedule: Q01DX009 (ip), vehicle: Klucel (hydroxypropylcellulose) (HPC)) was 93 % of control.
For `CCN1CC2(COC)C(O)CC(OC)C34C5CC6(O)C(O)C5C(O)(C(O)C6OC)C(C(OC)C23)C14` (centres undefined), the T/C [13] was 114 % of control, the T/C [10] was 102 % of control and the T/C [11] was 107 % of control. The T/C [12] was 104 % of control.
For `CC(C)C(=O)CC(c1ccccc1)P(=O)(c1ccccc1)c1ccccc1` (centres undefined), the T/C [1] was 102 % of control, the T/C [2] was 103 % of control and the T/C [3] was 103 % of control.
`CCOC1Oc2ccccc2-c2nc(C)c(C#N)cc21` (centres undefined) was tested, and the T/C [5] was 90 % of control, the T/C [6] was 88 % of control and the T/C [7] was 90 % of control.
For `O=C(O)C(Cc1ccc(C(=O)C(F)(F)F)cc1)NC(=O)C(F)(F)F` (centres undefined), the T/C [14] was 100 % of control, the T/C [16] was 103 % of control and the T/C [17] was 99 % of control.
With `COc1cc(C(Nc2ncccn2)c2cc3c(cc2OC(C)=O)OCO3)cc(OC)c1OC(C)=O` (centres undefined) the T/C [5] was 105 % of control, the T/C [6] was 100 % of control and the T/C [7] was 99 % of control.
For `O=C1NC(=O)C2NC(O)=C(O)NC2N1` (centres undefined), the T/C (dose: 12.5 mg/kg/injection, schedule: Q01DX001 (ip), vehicle: saline with Tween-80) was 102 % of control and the T/C (dose: 25.0 mg/kg/injection, schedule: Q01DX001 (ip), vehicle: saline with Tween-80) was 108 % of control.
`Cc1nn(C(N)=S)c(C)c1N=Nc1ccc(O)cc1` was tested, and the T/C [18] was 103 % of control, the T/C [19] was 103 % of control and the T/C [20] was 107 % of control.
With `O=C(O)c1ccc(OCCOc2ccccc2)cc1` the T/C (dose: 50.0 mg/kg/injection, schedule: Q01DX001 (ip), vehicle: saline with Tween-80) was 100 % of control, the T/C [21] was 100 % of control and the T/C [22] was 90 % of control.
In the case of `NC1=NS(=O)(=O)N=C(N)C1=NNc1ccc([N+](=O)[O-])cc1`, the T/C [21] was 108 % of control, the T/C [22] was 92 % of control and the T/C (dose: 400.0 mg/kg/injection, schedule: Q01DX001 (ip), vehicle: saline with Tween-80) was 96 % of control.
`COc1ccc2ccccc2c1C1=CC(c2ccccc2)C(c2cc(C)n(-c3ccccc3)n2)C(=O)N1` (centres undefined) was tested, and the T/C (dose: 100.0 mg/kg/injection, schedule: Q04DX002 (ip), vehicle: saline with Tween-80) was 101 % of control and the T/C (dose: 200.0 mg/kg/injection, schedule: Q04DX002 (ip), vehicle: saline with Tween-80) was 106 % of control.
